# Results from ChEMBL document CHEMBL1131292, “Synthesis and pharmacology of a new AMPA-kainate receptor agonist with potent convulsant activity” (J Med Chem, 1998).
# Columns and labels:
# Mus musculus [1] = experiment: In Vivo evaluation of the Compound administered through icv for the for tonicity in presence along with the antagonist GYKI 52466 in mice; format: functional
# Mus musculus [2] = experiment: In Vivo evaluation of the Compound administered through icv for the Clonic seizure presence along with the antagonist GYKI 52466 in mice.; format: functional
# Mus musculus [3] = experiment: In Vivo evaluation of the Compound administered through icv for the Clonic seizure presence of the compound along with the antagonist NBQX in mice; format: functional
# Mus musculus [4] = experiment: In Vivo evaluation of the Compound administered through icv for the Clonic seizure presence alone in mice.; format: functional
# Mus musculus [5] = experiment: In Vivo evaluation of the Compound administered through icv for the for tonicity in presence along with […] in mice; format: functional
# Mus musculus [6] = experiment: In Vivo evaluation of the Compound administered through icv for the Clonic seizure presence along with […] in mice.; format: functional
# Mus musculus [7] = experiment: In Vivo evaluation of the Compound administered through icv for tonicity in presence alone in mice; format: functional
# Mus musculus [8] = experiment: In Vivo evaluation of the Compound administered through icv for the for tonicity in presence of the compound along with the antagonist NBQX in mice; format: functional
# Mus musculus [9] = experiment: In Vivo evaluation of the Compound administered through icv for the tonicity in presence along with the antagonist GYKI 52466 in mice.; format: functional
# Mus musculus [10] = experiment: In Vivo evaluation of the Compound administered through icv for the Clonic seizure presence along with the antagonist NBQX in mice.; format: functional
# [11] = molecular target: Glutamate receptor ionotropic, kainate; experiment: Compound was evaluated for binding affinity at Ionotropic glutamate receptor kainate using [3H]- KAIN as radioligand; format: protein-complex assay
# Mus musculus [12] = experiment: In Vivo evaluation of the Compound administered through icv for the Clonic seizure presence along with the antagonist GYKI 52466 in mice; format: functional
# [13] = molecular target: Glutamate receptor ionotropic, AMPA (Rattus norvegicus, UniProt P19490+P19491+P19492+P19493)
# Description: Compound was evaluated for binding affinity at Ionotropic glutamate receptor AMPA using [3H]AMPA as radioligand
# Mus musculus [14] = experiment: In Vivo evaluation of the Compound administered through icv for tonicity in presence along with the antagonist NBQX in mice.; format: functional
# Glutamate NMDA receptor = experiment: Compound was evaluated for binding affinity at N-methyl-D-aspartate glutamate receptor using [3H]CPP as radioligand; format: protein-complex assay
# Mus musculus [15] = experiment: In Vivo evaluation of the Compound administered through icv for tonicity in presence along with […] in mice.; format: functional
# [16] = Potency ratio (the ratio between the CD50 value of the drug in the presence of antagonist versus its CD50 value) for compound in presence of CPP; range 2.9-3.4; format: functional
# Mus musculus [17] = experiment: In Vivo evaluation of the Compound administered through icv for the tonicity in presence alone in mice.; format: functional
# [18] = Potency ratio (the ratio between the CD50 value of the drug in the presence of antagonist versus its CD50 value) for compound in presence of GYKI 52466; range 1.4-2.1; format: functional
# [19] = Potency ratio (the ratio between the CD50 value of the drug in the presence of antagonist versus its CD50 value) for compound in presence of CPP compound in presence of NBQX; range 1.1-1.3; format: functional
# Mus musculus [20] = experiment: In Vivo evaluation of the Compound administered through icv for the Clonic seizure presence along with […] in mice. (+/-95% confidence limits within parenthesis); nM per mouse; format: functional
# Mus musculus [21] = experiment: In Vivo evaluation of the Compound administered through icv for tonicity in presence alone in mice.; format: functional
# Mus musculus [22] = experiment: In Vivo evaluation of the Compound administered through icv for tonicity in presence of the compound along with the antagonist NBQX in mice.; format: functional
# Mus musculus [23] = experiment: In Vivo evaluation of the Compound administered through icv for the Clonic seizure presence of the compound along with the antagonist NBQX in mice.; format: functional
# Mus musculus [24] = experiment: In Vivo evaluation of the Compound administered through icv for tonicity in presence along with the antagonist GYKI 52466 in mice.; format: functional
SMILES,CD50 (Mus musculus [2]) [nmol/mouse],CD50 (Mus musculus [4]) [nmol/mouse],CD50 (Mus musculus [6]) [nmol/mouse],IC50 [11] [µM],IC50 [13] [µM],IC50 (Glutamate NMDA receptor) [µM],CD50 (Mus musculus [15]),other results
Cc1onc(O)c1C[C@H](N)C(=O)O [(S)-AMPA],7.61,1.76,2.69,–,–,–,–,CD50 (Mus musculus [1]): 16.1 nmol; CD50 (Mus musculus [3]): 6.7 nmol/mouse; CD50 (Mus musculus [5]): 3.18 nM; CD50 (Mus musculus [7]): 2.9 nmol; CD50 (Mus musculus [8]): 15.7 nmol
O=C(O)C1=NO[C@H]2CN[C@H](C(=O)O)[C@@H]12,–,0.027,0.039,0.48,1.3,> 100,0.19 nmol,CD50 (Mus musculus [9]): 1.26 nM; CD50 (Mus musculus [10]): 0.43 nM; CD50 (Mus musculus [12]): 0.5 nM; CD50 (Mus musculus [14]): 0.99 nM
O=C(O)C1=NO[C@H]2[C@@H]1CN[C@@H]2C(=O)O,17.5,8.48,–,48,24.7,23,–,Ratio [16]: 2.9; CD50 (Mus musculus [17]): 39.9 nM; Ratio [18]: 1.4; Ratio [19]: 1.1; CD50 (Mus musculus [20]): 24.82 nM
C=C(C)[C@H]1CN[C@H](C(=O)O)[C@H]1CC(=O)O [KAINIC ACID],0.071,0.015,0.024,–,–,> 100,0.071 nmol/mouse,CD50 (Mus musculus [21]): 0.032 nmol/mouse; CD50 (Mus musculus [22]): 0.468 nmol/mouse; CD50 (Mus musculus [23]): 0.094 nmol; CD50 (Mus musculus [24]): 0.232 nmol/mouse
